Legend:
[1] = Solubility Protocol; format: physicochemical; conditions: aqueous buffer, thermodynamic from solid; pH 7.4, 0.1 M sodium phosphate buffer
Experimental: About 5 mg of a compound was mixed with 500 μL of pH 7.4, 0.1 M sodium phosphate buffer. The mixture was adjusted to the original pH of 7.4 and then mixed overnight or longer via rotary mixing. The sample was checked for pH and then filtered through a 0.45 μm filter. If the pH drifted away, the sample was adjusted to its original pH and mixed for at least 15 minutes before filtration. The filtrate was analyzed using HPLC.

[2] = target: T1, PDE4B (Homo sapiens, UniProt Q07343); experiment: PDE/AK Biological Activity Assay (coupled PDE/adenylate kinase bioluminescent assay); format: biochemical; conditions: catalytic domain of PDE4B, read-out: PDE4 Enzyme IC50
T1 construct: hex-histidine (His6) (N); made in house
T1 sequence (Q07343 330-659 limits assumed, species assumed): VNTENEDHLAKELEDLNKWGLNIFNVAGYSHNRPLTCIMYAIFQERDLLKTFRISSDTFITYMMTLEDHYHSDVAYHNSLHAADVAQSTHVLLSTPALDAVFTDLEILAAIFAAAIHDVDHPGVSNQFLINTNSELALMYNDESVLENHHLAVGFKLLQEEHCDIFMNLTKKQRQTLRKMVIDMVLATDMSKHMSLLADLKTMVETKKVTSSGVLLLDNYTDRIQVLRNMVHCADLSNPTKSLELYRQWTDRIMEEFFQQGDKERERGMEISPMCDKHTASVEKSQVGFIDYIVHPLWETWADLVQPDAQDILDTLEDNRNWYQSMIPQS
Excerpt: Phosphodiesterases regulate the activity of the second messenger cyclic adenosine monophosphate (cAMP) by hydrolyzing cAMP to adenosine monophosphate (AMP). We developed a coupled PDE/AK bioluminescent high-throughput assay to measure the activity of phosphodiesterases. In the PDE/AK assay, the AMP produced from the hydrolysis of cAMP by phosphodiesterase is converted to adenosine diphosphate (ADP) by the phosphotransferase activity of adenylate kinase (also known as ADK or myokinase). Adenylate kinase will catalyze the conversion of 1 mole of AMP and 1 mole of ATP into 2 moles of ADP. Thus the conversion of AMP to ADP will result in the subsequent loss of ATP. The decrease in ATP concentration can be monitored as light output using luciferase in a reaction that requires ATP to produce light. The PDE/AK assay uses luciferase, which catalyzes the production of light from ATP present in the reaction mix. The amount of emitted light is inversely proportional to the level of AMP present in the reaction. Test compounds are incubated with the phosphodiesterases and phosphodiesterase inhibitors will decrease the rate of cAMP hydrolysis and decrease the subsequent production of AMP. Thus phosphodiesterase inhibitors will decrease the conversion of ATP to ADP and result in the greatest emission of light.
Compounds may be screened for functional potency in in vitro biochemical assays for their ability to inhibit the activity of phosphodiesterase (PDE) enzymes. A coupled PDE/AK assay was utilized to measure the inhibitory activity of compounds on PDE isoforms. The catalytic domain of PDE4B was fused to an amino-terminus hex-histidine affinity tag and purified. PDE4B enzyme was incubated with compounds for 10 minutes. Cyclic AMP substrate, ATP and adenylate kinase were then added to the PDE enzyme mix and incubated for 45 minutes at room temperature. A commercial ATP detection assay, Perkin Elmer's easyLite ATP detection reagent, was then added to measure the relative amount of ATP present in the reaction. After 10 minute incubation, the luminescent signal was quantitated with either the Perkin Elmer Viewlux or Molecular Devices Acquest or Analyst. Roflumilast and Rolipram are the positive controls used in the assay.

[3] = Stability Protocol; format: physicochemical; conditions: pH 7.4 sodium phosphate buffer, preliminary shelf life (T90) estimated from stressed samples
Experimental: About 3 mg of a compound was dissolved in 3 mL of acetonitrile/water mixture (50/50). 100 μL of the stock solution was added to 20 mL each of 0.025 M pH 5.0 sodium acetate buffer (A5.0), 0.025 M pH 5.0 citrate buffer (C5.0) and 0.025 M pH 7.4 sodium phosphate buffer (P7.4). A two mL aliquot of each solution was kept in a glass vial equipped a cap lined with Teflon. Two vials containing the solution were stored at 4° C. or −20° C. as control. Other aliquots were stressed at RT, 45° C. or 75° C. for specified time check points, e.g. 1 day, 1 w, 2 w, 4 w, 8 w,12 w. The stressed samples in duplicate were assayed against the control using HPLC. The results were reported in % degradation. Preliminary shelf life (T90) was estimated assuming the rate of chemical degradation is double when the temperature is up 10° C.

| solubility [1] [µg/mL] | IC50 [2] [nM] | SMILES | Stability, pH 7.4 [3] |
| --- | --- | --- | --- |
| ≥ 1000 | < 1000 | COc1ccc2c(Nc3c(Cl)cncc3Cl)cc(=O)[nH]c2c1OCCCn1ccnc1 [Example 62, 8-(3-(1H-imidazol-1-yl)propoxy)-4-(3,5-dichloropyridin-4-ylamino)-7-methoxyquinolin-2(1H)-one] |  |
| ≥ 1000 | < 1000 | COc1ccc2c(Nc3c(Cl)cncc3Cl)cc(=O)[nH]c2c1OCCCCCO [Example 42, 4-(3,5-dichloropyridin-4-ylamino)-8-(5-hydroxypentyloxy)-7-methoxyquinolin-2(1H)-one] |  |
|  | < 1000 | COc1ccc2c(Nc3c(C)cncc3C)cc(=O)[nH]c2c1OCCCCCn1ccnc1 [Example 79, 8-(5-(1H-imidazol-1-yl)pentyloxy)-4-(3,5-dimethylpyridin-4-ylamino)-7-methoxyquinolin-2(1H)-one] | + (+ indicates ≧1 Year) |
| ≥ 1000 | < 1000 | COc1ccc2c(Nc3c(C)cncc3C)cc(=O)[nH]c2c1OCCCCCCC(=O)O [Example 74, 7-(4-(3,5-dimethylpyridin-4-ylamino)-7-methoxy-2-oxo-1,2-dihydroquinolin-8-yloxy)heptanoic acid] |  |
| ≥ 1000 | < 1000 | COc1ccc2c(Nc3c(Cl)cncc3Cl)cc(=O)[nH]c2c1OCC(N)=O [Example 50, 2-(4-(3,5-dichloropyridin-4-ylamino)-7-methoxy-2-oxo-1,2-dihydroquinolin-8-yloxy)acetamide] |  |
| < 1000 | < 1000 | COc1ccc2c(Nc3c(C)cncc3C)cc(=O)[nH]c2c1OCCCn1ccnc1 [Example 77, 8-(3-(1H-imidazol-1-yl)propoxy)-4-(3,5-dimethylpyridin-4-ylamino)-7-methoxyquinolin-2(1H)-one] |  |
| ≥ 1000 | < 1000 | COc1ccc2c(Nc3c(Cl)cncc3Cl)cc(=O)[nH]c2c1OCCCCCN1CCOCC1 [Example 49, 4-(3,5-dichloropyridin-4-ylamino)-7-methoxy-8-(5-morpholinopentyloxy)quinolin-2(1H)-one] |  |
| ≥ 1000 | < 1000 | COc1ccc2c(Nc3c(C)cncc3C)cc(=O)[nH]c2c1OCCCCCCN1CCCCC1 [Example 36, 4-(3,5-Dimethylpyridin-4-ylamino)-7-methoxy-8-(6-(piperidin-1-yl)hexyloxy)quinolin-2(1H)-one] |  |
| ≥ 1000 | < 1000 | COc1ccc2c(Nc3c(Cl)cncc3Cl)cc(=O)[nH]c2c1OCCCCCCN(C)CCCN(C)C [Example 27, 4-(3,5-Dichloropyridin-4-ylamino)-8-(6-((3-(dimethylamino)propyl)(methyl)amino)hexyloxy)-7-methoxyquinolin-2(1H)-one] |  |
| ≥ 1000 | < 1000 | COc1ccc2c(Nc3c(Cl)cncc3Cl)cc(=O)[nH]c2c1OCCCCCCN(C)CCCO [Example 33, 4-(3,5-Dichloropyridin-4-ylamino)-8-(6-((3-hydroxypropyl)(methyl)amino)hexyloxy)-7-methoxyquinolin-2(1H)-one] |  |

Further lines, the molecule ahead of its results:

| SMILES | solubility [1] [µg/mL] | IC50 [2] [nM] | Stability, pH 7.4 [3] |
| --- | --- | --- | --- |
| COc1ccc2c(Nc3c(Cl)cncc3Cl)cc(=O)[nH]c2c1OCC(C)C [Example 61, 4-(3,5-dichloropyridin-4-ylamino)-8-isobutoxy-7-methoxyquinolin-2(1H)-one] |  | < 1000 | + (+ indicates ≧1 Year) |
| COc1ccc2c(Nc3c(Cl)cncc3Cl)cc(=O)[nH]c2c1OCCCCCN1CCN(C)CC1 [Example 47, 4-(3,5-dichloropyridin-4-ylamino)-7-methoxy-8-(5-(4-methylpiperazin-1-yl)pentyloxy)quinolin-2(1H)-one] | ≥ 1000 | < 1000 |  |
| COc1ccc2c(Nc3c(C)cncc3C)cc(=O)[nH]c2c1OCCCCCC(=O)O [Example 73, 6-(4-(3,5-dimethylpyridin-4-ylamino)-7-methoxy-2-oxo-1,2-dihydroquinolin-8-yloxy)hexanoic acid] | ≥ 1000 | < 1000 |  |
| COc1ccc2c(Nc3c(Cl)cncc3Cl)cc(=O)[nH]c2c1OCCCCC(=O)N[C@@H](CC(=O)O)C(=O)O [Example 66, (S)-2-(5-(4-(3,5-dichloropyridin-4-ylamino)-7-methoxy-2-oxo-1,2-dihydroquinolin-8-yloxy)pentanamido)succinic acid] | ≥ 1000 | < 1000 |  |
| COc1ccc2c(Nc3c(C)cncc3C)cc(=O)[nH]c2c1OCCCCn1ccnc1 [Example 78, 8-(4-(1H-imidazol-1-yl)butoxy)-4-(3,5-dimethylpyridin-4-ylamino)-7-methoxyquinolin-2(1H)-one] |  | < 1000 | + (+ indicates ≧1 Year) |
| COc1ccc2c(Nc3c(C)cncc3C)cc(=O)[nH]c2c1OCCCCCCCCC(=O)O [Example 76, 9-(4-(3,5-dimethylpyridin-4-ylamino)-7-methoxy-2-oxo-1,2-dihydroquinolin-8-yloxy)nonanoic acid] | < 1000 | < 1000 |  |
| COc1ccc2c(Nc3c(Cl)cncc3Cl)cc(=O)[nH]c2c1OCCCC(=O)O [Example 51, 4-(4-(3,5-dichloropyridin-4-ylamino)-7-methoxy-2-oxo-1,2-dihydroquinolin-8-yloxy)butanoic acid] | ≥ 1000 | < 1000 |  |
| COc1ccc2c(Nc3c(C)cncc3C)cc(=O)[nH]c2c1OCCCCC(=O)O [Example 72, 5-(4-(3,5-dimethylpyridin-4-ylamino)-7-methoxy-2-oxo-1,2-dihydroquinolin-8-yloxy)pentanoic acid] | ≥ 1000 | < 1000 |  |
| COc1ccc2c(Nc3c(Cl)cncc3Cl)cc(=O)[nH]c2c1OCCCCCCCCC(=O)O [Example 55, 9-(4-(3,5-dichloropyridin-4-ylamino)-7-methoxy-2-oxo-1,2-dihydroquinolin-8-yloxy)nonanoic acid] | ≥ 1000 | < 1000 |  |
| COCCOCCOCCCOc1c(OC)ccc2c(Nc3c(Cl)cncc3Cl)cc(=O)[nH]c12 [Example 70, 4-(3,5-dichloropyridin-4-ylamino)-7-methoxy-8-(3-(2-(2-methoxyethoxy)ethoxy)propoxy)quinolin-2(1H)-one] | ≥ 1000 | < 1000 |  |
| COc1ccc2c(Nc3c(Cl)cncc3Cl)cc(=O)[nH]c2c1OCCCCc1nn[nH]n1 [Example 68, 8-(4-(2H-tetrazol-5-yl)butoxy)-4-(3,5-dichloropyridin-4-ylamino)-7-methoxyquinolin-2(1H)-one] | ≥ 1000 | < 1000 |  |
| COc1ccc2c(Nc3c(C)cncc3C)cc(=O)[nH]c2c1OCCCCCCCC(=O)O [Example 75, 8-(4-(3,5-dimethylpyridin-4-ylamino)-7-methoxy-2-oxo-1,2-dihydroquinolin-8-yloxy)octanoic acid] | ≥ 1000 | < 1000 |  |
| COc1ccc2c(Nc3c(Cl)cncc3Cl)cc(=O)[nH]c2c1OCCCCC(=O)N[C@@H](CO)C(=O)O [Example 64, (S)-2-(5-(4-(3,5-dichloropyridin-4-ylamino)-7-methoxy-2-oxo-1,2-dihydroquinolin-8-yloxy)pentanamido)-3-hydroxypropanoic acid] | ≥ 1000 | < 1000 |  |
| COc1ccc2c(Nc3c(C)cncc3C)cc(=O)[nH]c2c1OCCCCCCN1CCCC1 [Example 37, 4-(3,5-Dimethylpyridin-4-ylamino)-7-methoxy-8-(6-(pyrrolidin-1-yl)hexyloxy)quinolin-2(1H)-one] | ≥ 1000 | < 1000 |  |
| COc1ccc2c(Nc3c(Cl)cncc3Cl)cc(=O)[nH]c2c1OCCCCCCN(C)CCO [Example 30, 4-(3,5-Dichloropyridin-4-ylamino)-8-(6-((2-hydroxyethyl)(methyl)amino)hexyloxy)-7-methoxyquinolin-2(1H)-one] | ≥ 1000 | < 1000 |  |
